Experimental data from BindingDB's records for doi:10.1016/s0960-894x(01)00044-0 (Novartis Institute For Medical Sciences, 2001).

Experiments:
Substance-P receptor = Substance-P receptor (Cavia porcellus, UniProt P30547); assay: ChEBML_205410
Description: In vitro binding affinity against Tachykinin receptor 1 in guinea pig ileum using organ bath assay

[1] = In vitro binding affinity against Tachykinin receptor 1 in rabbit whole brain membranes using [3H][Sar9Met(O2)]-SP binding assay

Substance-P receptor, sequence (P30547 whole entry): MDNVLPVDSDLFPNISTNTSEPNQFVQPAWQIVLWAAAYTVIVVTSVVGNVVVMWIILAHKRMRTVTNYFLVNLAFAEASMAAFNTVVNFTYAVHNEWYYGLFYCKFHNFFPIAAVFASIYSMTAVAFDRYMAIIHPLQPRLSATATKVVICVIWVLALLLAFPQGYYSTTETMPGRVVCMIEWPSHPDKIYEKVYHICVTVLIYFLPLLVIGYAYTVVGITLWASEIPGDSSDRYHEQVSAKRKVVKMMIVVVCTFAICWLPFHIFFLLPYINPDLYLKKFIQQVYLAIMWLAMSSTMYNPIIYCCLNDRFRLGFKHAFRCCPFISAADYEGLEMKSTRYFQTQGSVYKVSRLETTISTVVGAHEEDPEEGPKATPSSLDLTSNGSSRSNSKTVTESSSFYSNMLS

SMILES | IC50 (Substance-P receptor) [µM] | IC50 [1] [µM]
CSCCNS(=O)(=O)c1ccc(NNC(=S)N2CCCC2C(=O)NCc2ccccc2)c([N+](=O)[O-])c1 (configuration not stated) | > 100 | 
CSCCNS(=O)(=O)c1ccc(NNC(=S)N2CCCC2C(=O)NC(c2ccccc2)c2ccccc2)c([N+](=O)[O-])c1 (configuration not stated) |  | > 50
